Assays:
[1] = test system: scopolamine-induced spatial memory disorder; assay: Ameliorating effect on spatial memory disorder induced by scopolamine (Y-maze, alternation behavior); type: in vivo; conditions: Std-ddY male mice, oral, 1 hour before scopolamine 0.6 mg/kg s.c., 5% significance level
Experimental: Experiment 1: Ameliorating Effect on Spatial Memory Disorder Induced by Scopolamine. The spatial memory test using Y-maze apparatus is a test to utilize the behavioral property of animals to enter into a new arm, avoiding the arm that they entered into just before (alternation behavior). This method is often used in order to study spatial working memory. This experiment was carried out according to the method of Itoh, J., et al. [Eur. J. Pharmacol., 236, 341-345 (1993)]. Std-ddY male mice weighing 25-30 g (8 mice per one group) were used in the experiment. A solution of scopolamine in physiological saline (concentration: 0.06 mg/ml) was subcutaneously administered to mice in a volume of 0.1 ml/10 g of body weight, i.e., 0.6 mg/kg. Mice in the test compound group were orally treated with the test compound suspended in 0.5% tragacanth solution in a volume of 0.1 ml/10 g of body weight 1 hour before scopolamine administration, while animals in the amnesia control group and the vehicle control group received a 0.5% tragacanth solution in the same manner as above. However, the vehicle control group was injected with physiological saline instead of scopolamine. Thirty minutes after administration of scopolamine, the mice were placed at the end of the arm A of the Y-maze apparatus which was composed of three black acrylic trapezoid arms (bottom width: 3 cm, height of side wall: 12 cm, width of opened ceiling: 10 cm, length: 40 cm), wherein said three arms were connected at the one end of each arm to form Y-shape and another ends were closed, and the three arms were differentiated by the names as A, B and C respectively, and allowed to search freely the maze for 8 minutes. When the mouse was checked to enter into an arm at the length of not less than 10 cm from the entrance of the arm, the name of the arm (A, B or C) was recorded. It could be defined as a correct choice when the mouse selected the different three arms sequentially, and the number of alternation behavior i.e., the number of correct choices was counted. In the case that the total number of arm entries was less than 10 [the maximum number of alternation behavior (the number obtained by subtracting 2 from the total number of arm entries) is less than 8], the resulting data were not used and the retest was carried out instead, because the ability of learning could not occasionally reflect the alternation behavior. For the final data gotten, the ratio of the number of the alternation behavior to that of the entries (obtained by subtracting 2 from the total number of arm entries) was estimated as the rate of alternation behavior. In statistical analysis, the rate of alternation behavior in the amnesia control group was compared with that in the vehicle control group by the nonparametric Wilcoxon rank sum test and it was checked if a significant amnesia was induced in the amnesia control group. Next, the efficacy of the test compounds was evaluated in comparison between the amnesia control group and the test compound group by the nonparametric Dunnett multiple comparison test. The statistical calculation was carried out with SAS system Version 6.12 (SAS Institute Japan Ltd.).

[2] = test system: scopolamine-induced object memory impairment; assay: Ameliorating effect on object memory disorder induced by scopolamine (object recognition test); type: in vivo; conditions: Std-ddY male mice, oral; for MED (minimum effective dose), significant difference in the discrimination index, scopolamine-induced object memory impairment: 30 minutes before scopolamine 0.4 mg/kg s.c., 5% significance level
Experimental: Experiment 2: Ameliorating Effect on Object Memory Disorder Induced by Scopolamine. The object recognition test is a test method using the property which animals like to search a novel object. This method is often used in order to study the memorization and retention of episodic memory. This experiment was carried out according to the partially modified method of Bartolini, L. et al. [Pharmacol. Biochem. Behav., 53, 277-283 (1996)]. Std-ddY male mice weighing 25-30 g (six mice per one group) were used in the experiment. Scopolamine dissolved in physiological saline (concentration: 0.04 mg/ml) was subcutaneously administered to mice in a volume of 0.1 ml per 10 g of body weight, i.e., 0.4 mg/kg. For the test compound group, the test compound suspended in 0.5% tragacanth solution was orally administered in a volume of 0.1 ml per 10 g of body weight, 30 minutes before scopolamine administration, and for the amnesia control group and the vehicle control group, a 0.5% tragacanth solution was administered in the same manner as above. However, for the vehicle control group, physiological saline was administered instead of scopolamine. Thirty minutes after the administration of scopolamine, the first trial was carried out for 5 minutes, and 1 hour after the first trial, the second trial was carried out for 5 minutes. In the first trial, the two same-shaped objects [red frustum-formed funnel adaptors made of silicon (bottom diameter: 6.1 cm, ceiling diameter: 4.5 cm, height: 3.5 cm)] are put on the two adjacent corners of the test box made of brown acrylic (length: 22.5 cm, width: 24.5 cm, height: 11 cm), and the time that the mouse explored each object was measured. In the second trial, the object (familiar: F) which the exploration time was longer in the first trial was retained, while another object in the first trial was replaced by the novel object [novel: N, red diver ring (outside diameter: 7.5 cm, inside diameter: 2.5 cm, thickness: 2.0 cm)] at the same position, and then the time for exploring each object was measured. The rate of object memory impairment was obtained from the formula: (N−F)/(N+F) as a discrimination index, and the comparison between the vehicle control group and the amnesia control group, and between the amnesia control group and the test compound group was carried out on the basis of said discrimination index. In statistical analysis, the comparison between the vehicle control group and the amnesia control group was carried out by the Student's t test and it was checked whether a significant amnesia was induced. The efficacy of the test compounds was evaluated on the basis of comparison between the amnesia control group and the test compound group by the parametric Dunnett's multiple comparison test. […]

[3] = test system: MK-801-induced object location memory impairment; assay: Ameliorating effect on the impairment of object location memory induced by MK-801 (object location memory test); type: in vivo, mice; conditions: oral; for MED (minimum effective dose), significant ameliorating effect on MK-801-induced object location memory impairment: Std-ddY male mice, 30 minutes before MK-801 0.05 mg/kg s.c., 5% significance level; for effective dose relative to the dose of FGIN-1-27: MK-801-induced object location memory impairment, mice
Source text: Experiment 3: Ameliorating Effect on the Impairment of Object Location Memory Induced by MK-801.
The object location memory test is a test method using the property which animals like to search a novelty caused by the change of an object location. This method is often used in order to study the ability of object location memory. This method is closely related with hypofunction of glutamatergic system and cause the location memory impairment selectively without the impairment of object memory which is induced by hypofunction of cholinergic system.
This experiment was carried out according to the partially modified method of Sophie L. Dix, et al. [Behav. Brain Res., 99, 191-200 (1999)].
Std-ddY male mice weighing 25-30 g (six mice per one group) were used in the experiment. A solution of MK-801 in physiological saline (concentration: 0.005 mg/ml) was subcutaneously administered in a volume of 0.1 ml per 10 g of body weight, i.e., 0.05 mg/kg. For the test compound group, the test compound suspended in 0.5% tragacanth solution was orally administered in a volume of 0.1 ml per 10 g of body weight, 30 minutes before MK-801 administration, and for the amnesia control group and the vehicle control group, a 0.5% tragacanth solution was administered in the same manner as above. However, for the vehicle control group, physiological saline was administered instead of MK-801. Thirty minutes after the administration of MK-801, the first trial was carried out for 5 minutes, and 1 hour after the first trial, the second trial was carried out for 5 minutes. In the first trial, the two same-shaped objects [red frustum-formed funnel adaptors made of silicon (bottom diameter: 6.1 cm, ceiling diameter: 4.5 cm, height: 3.5 cm)] were respectively put in the center and one of the corners of the test box made of brown acrylic (length: 22.5 cm, width 24.5 cm, height: 11 cm), and the time which the mouse explored each object was measured. In the second trial, the object (displaced object: DO) which was located in the center in the first trial was displaced in the opposite corner to another object (non displaced object: NDO), and then the time which the mouse explored each object was measured. The difference in the exploration time of DO and NDO respectively between the first trial and the second trial was calculated, and the comparison between the vehicle control group and the amnesia control group, and between the amnesia control group and the test compound group was carried out.
In statistical analysis, the comparison between the vehicle control group and the amnesia control group was carried out by the Student's t test and it was confirmed whether a significant object location memory impairment was induced. The efficacy of the test compounds was evaluated by comparing the amnesia control group with the test compound group using the parametric Dunnett's multiple comparison test. The statistical calculation was carried out with SAS system Version 6.12 (SAS Institute Japan Ltd.).
Besides, in the vehicle control group, the exploration time for NDO in the second trial decreased and the exploration time for DO was obviously longer than that for NDO. […] On the other hand, in the amnesia control group with MK-801, both exploration time for NDO and DO decreased remarkably.

[4] = test system: animal models of learning impairment; conditions: active avoidance test, radial-arm maze test, water maze test; cited from earlier work
[5] = test system: Std-ddY male mice; assay: Acute toxicity (Experiment 4); type: in vivo; conditions: oral 2000 mg/kg, observed for 7 days
Experimental: Experiment 4: Acute Toxicity
The experiment on the test compound C was carried out using Std-ddY male mice weighing 25-30 g (10 mice per each group).

Q: For `CCCCCCN(CCCCCC)C(=O)Cc1c(-c2ccc(F)cc2)[nH]c2ccccc12` [FGIN-1-27, N,N-di-n-hexyl-2-(4-fluorophenyl)indol-3-acetamide, reference compound], which “MED (minimum effective dose), significant ameliorating effect on scopolamine-induced spatial memory disorder in the rate of alternation behavior” value [1] is on record?
A: 10 mg/kg

Q: And the “MED (minimum effective dose), significant difference in the discrimination index, scopolamine-induced object memory impairment” value [2]?
A: >30 mg/kg

Q: And the “ameliorating effect on scopolamine-induced object memory impairment at a stated dose” value ([2]; dose of 30 mg/kg)?
A: no significant ameliorating effect

Q: What about the “MED (minimum effective dose), significant ameliorating effect on MK-801-induced object location memory impairment” value [3] of the same molecule?
A: 10 mg/kg

Q: What about the “ameliorating effects in animal models of learning impairment” value (“ameliorating effects in animal models” below) [4] of the same molecule?
A: weak ameliorating effects

Q: For `CCN(Cc1ccccc1)C(=O)Cn1c(=O)n(C)c2nc(-c3ccccc3)ncc21` [Test Compound B, N-benzyl-N-ethyl-8,9-dihydro-9-methyl-8-oxo-2-phenyl-7H-purin-7-acetamide], which “MED (minimum effective dose), significant ameliorating effect on scopolamine-induced spatial memory disorder in the rate of alternation behavior” value [1] is on record?
A: 3 mg/kg

Q: What does the source list for `CCN(Cc1ccccc1)C(=O)Cn1c(=O)n(C)c2cnc(-c3ccccc3)nc21` [Test Compound E, N-benzyl-N-ethyl-7,8-dihydro-7-methyl-8-oxo-2-phenyl-9H-purin-9-acetamide]?
A: MED (minimum effective dose), significant ameliorating effect on scopolamine-induced spatial memory disorder in the rate of alternation behavior [1]: 1 mg/kg; MED (minimum effective dose), significant difference in the discrimination index, scopolamine-induced object memory impairment [2]: 0.1 mg/kg; effective dose relative to the dose of FGIN-1-27 [3]: less than 1/100; MED (minimum effective dose), significant ameliorating effect on MK-801-induced object location memory impairment [3]: 0.01 mg/kg

Q: Which “ameliorating effects in animal models” value [4] does the source give for pregnenolone sulfate here?
A: weak ameliorating effects

Q: For `CCN(Cc1ccccc1)C(=O)Cn1c(=O)n(CC)c2cnc(-c3ccccc3)nc21` [Test Compound D, N-benzyl-7-ethyl-N-ethyl-7,8-dihydro-8-oxo-2-phenyl-9H-purin-9-acetamide], which “MED (minimum effective dose), significant ameliorating effect on scopolamine-induced spatial memory disorder in the rate of alternation behavior” value [1] is on record?
A: 3 mg/kg

Q: Which “ameliorating effects in animal models” value [4] does the source give for `CC(=O)[C@H]1CC[C@H]2[C@@H]3CC[C@H]4C[C@H](O)CC[C@]4(C)[C@H]3CC[C@]12C` [allopregnanolone] here?
A: weak ameliorating effects

Q: With `COc1ccc(N(C)C(=O)Cn2c(=O)n(C)c3cnc(-c4ccccc4)nc32)cc1` [Test Compound A, N-(4-methoxyphenyl)-7,8-dihydro-7-methyl-N-methyl-8-oxo-2-phenyl-9H-purin-9-acetamide] as the molecule, how does the “MED (minimum effective dose), significant ameliorating effect on scopolamine-induced spatial memory disorder in the rate of alternation behavior” value [1] read?
A: 3 mg/kg

Q: With `CCN(C(=O)Cn1c(=O)n(C)c2nc(-c3ccccc3)ncc21)c1ccccc1` [Test Compound C, N-ethyl-8,9-dihydro-9-methyl-8-oxo-2-phenyl-N-phenyl-7H-purin-7-acetamide] as the molecule, how does the “MED (minimum effective dose), significant ameliorating effect on scopolamine-induced spatial memory disorder in the rate of alternation behavior” value [1] read?
A: 0.01 mg/kg

Q: What about the “MED (minimum effective dose), significant difference in the discrimination index, scopolamine-induced object memory impairment” value [2] of the same molecule?
A: 0.01 mg/kg

Q: And the “effective dose relative to the dose of FGIN-1-27” value [3]?
A: less than 1/100

Q: What about the “MED (minimum effective dose), significant ameliorating effect on MK-801-induced object location memory impairment” value [3] of the same molecule?
A: 0.1 mg/kg

Q: What about the lethality [5] of the same molecule?
A: no mouse treated with the test compound C died

— US6962921B2, “Dementia remedies containing 2-aryl-8-oxodihydropurine derivatives as the active ingredient” (Dainippon Pharmaceutical Co., Ltd., priority 2000, dated 2005)
